Molecular target: Cell division control protein 42 homolog (Homo sapiens) (UniProt P60953)
Test: Cdc42 activation blockers via PAK binding – biochemical, purified His-Cdc42, PAK-PBD pull-down, Western blot, orthogonal assay for Ras-related GTPase inhibitor project, late-stage follow-up (AID 2374)
Conditions: His-Cdc42 GTPgS loading, at 10 µM, stronger effect = higher value

Sequence of Cell division control protein 42 homolog (Homo sapiens) (P60953 whole entry, looked up): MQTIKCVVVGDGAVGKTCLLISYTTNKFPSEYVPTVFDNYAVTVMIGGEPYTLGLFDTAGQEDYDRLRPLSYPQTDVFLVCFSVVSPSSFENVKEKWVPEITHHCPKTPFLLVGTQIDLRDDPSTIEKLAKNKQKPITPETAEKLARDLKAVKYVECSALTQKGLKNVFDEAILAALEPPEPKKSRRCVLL

inhibition (at 0.1 uM GTPgS): 96%
inhibition (at 0.5 uM GTPgS): 94%
inhibition: 60%
SMILES: COc1ccc(C2CC(c3ccccc3)=NN2c2ccc(S(N)(=O)=O)cc2)cc1 (stereo not drawn)

From PubChem BioAssay AID2374 (NMMLSC, 2010)
